This is an account of results in patent US20110311457A1, “METHODS FOR IMAGING VASCULAR INFLAMMATION USING IMPROVED NANOPARTICLE CONTRAST AGENTS” (NANOSCAN IMAGING, LLC, priority 2007, published 2011).

Data set [1] is described as follows: Particle size during milling, XDC. The class given is physicochemical. From the text:
In one embodiment, XDC (X-ray disc centrifuge sedimentometry) is used to measure particle size distribution. This is one of the most precise methods available for inorganic materials. The technique is based on the fact that particles of a different size (and of the same density) will take different times to travel between two points under the same force (e.g., gravity, centrifugal force): a larger particle will travel faster than a small particle. The derivation of the Stokes' equation for centrifugal sedimentation has been described many times in the literature (Thomas, J. C., and Fairhurst, D. (1991) Surface Phenomena and Fine Particles in Water-based Coatings and Paints. Sharma, M. K., and Micale, F. J. (eds), Plenum Press, New York). The relationship between size and the time taken is a square function. Thus, if a particle of (for example) one micron, takes one second to traverse a given distance, a 0.1 micron particle will take 100 seconds. With a distribution a particle sizes, the particles will effectively fractionate as they move under the proscribed (centrifugal) force. Because time can be measured extremely precisely, the sizes detected can be measured with great precision. The method used to determine the “amount” of material at any given size is X-ray absorbtion. For many inorganic materials, X-rays are absorbed in proportion to mass. The particle size density is therefore “mass-weighted.” Since, for a given particle density, mass is proportional to volume, a “volume-weighted” value (Dv) can be calculated for particle size density. Making the assumption that the particles are spherical, Dv can be transformed into either a surface-weighted value (Ds) or a number-weighted value (Dn). The latter number can be compared with the size determined from electron microscopy. For particle sizes in the colloidal domain (less than 1 micron), the assumption of sphericity is quite reasonable and becomes more so as the particle size gets smaller into the deep sub-micron (<100 nm) and the true nanometer (ca 10 nm) range. The size range that can be accommodated in XDC measurements is dictated only by the width of the particle size density, e.g., how long the measurement will take. The XDC method can be quite time consuming for a very broad particle size density.
(§1) N1177 was milled to the desired particle size distribution. The particle size during milling was monitored in a preliminary study by periodically measuring particle size using XDC and PCS instruments.

A short description of data set [2]: Particle size during milling, PCS. Format: physicochemical.
Text: This is the most widely used technique for particle size density determination and there are two main variations: photon correlation spectroscopy (PCS), and Fraunhofer Diffraction (FD). The choice is dictated by the particle size range under investigation. PCS works for sizes from a few nanometers up to about 1 micron (1000 nm), and FD works from about 1 micron up to millimeters. Both methods are called “ensemble averaging methods.” This means that the two relevant pieces of information needed to describe the particle size density (the actual size and the amount of material at that size) need to be deconvoluted from a single measurement of the amount of light scattered. This involves application of extremely complex theory and equally complex deconvolution algorithms (Kerker, M. (1969) The Scattering of Light and other Electromagnetic Radiation. Academic Press, New York). Thus, both measurement variations are intrinsically low resolution: typically the best that can be achieved is to differentiate between two class sizes (Weiner, B. B. (1984) Modern Methods of Particle Sizing. Barth, H. (ed). Wiley-Interscience). A technical issue arises when the particle size density extends across the one micron point, because then the two different algorithms/theories need to be applied and these cannot be combined together. Attempts to do so result in artifacts in the particle size density such that commercial instruments smooth the data resulting in even less resolution. Being based on light scattering, the fundamental value obtained is an “intensity-weighted” number (Di). Transforming the Di value into a Dv value presents several challenges. The first is that, in addition to the assumption of sphereicity, both PCS and FD weight the intensity differently, and the second is that the transform necessitates application of scattering and efficiency corrections (Weiner, B. B., Fairhurst, D., and Tscharnuter, W. W. (1991) Particle Size Distribution II—Assessment and Characterization. Provder, T. (ed). ACS Symposium Series No. 472. American Chemical Society). Although such corrections can be calculated from Mie theory (Kerker, M. (1969) The Scattering of Light and other Electromagnetic Radiation. Academic Press, New York), they are particle size dependent and require knowledge of the optical properties (complex refractive index) of both the particles and the surrounding medium. The result is that the Dv value (and if further transforms are made to Ds and Dn) can be widely inaccurate. However, for quality control purposes the technique is extremely fast and, for measurements on the same material, extremely reproducible. Laser light scattering may also be referred to as Dynamic Light Scattering (DLS) and generally refers to the PCS technique. Asymmetrical flow field-flow-fractionation (AF4) is a newer method based on light scattering which may be employed. The benefit A4F is that the method is able to separate nanoparticle mixtures prior to DLS analysis.
as §1

The test system of data set [3] is rabbit VX2-tumor. As to the kind of experiment: CT tumor perfusion imaging in a tumor bearing rabbit. Format: in vivo. The settings on record: for HU value, ROI 1 Tumor vessel / HU value, ROI 2 Vessel / HU value, ROI 3 Tumor vital tissue / HU value, ROI 4 Tumor necrotic tissue / HU value, ROI 5 Whole tumor: 300 mgI/kg b.w. The text has this:
The goal of the study was to explore the potential of different contrast media to visualize tumor perfusion.

For data set [4], the system named is erythrocytes. As to the kind of experiment: Influence on erythrocyte morphology (damage index) in vitro. Format: cell-based, human. The settings on record: final conc. 52.86 mg I/mL, value in % of maximal damage index. How it is done:
Effects on red blood cells can be monitored in vitro, by exposing human blood to contrast agents, monitoring the appearance of deformed erythrocytes and deriving a “damage index” (D.I.) immediately after exposure, 1 and 2 hours after incubation. Parameters: Morphological changes of blood erxthrocytes;

For data set [5], the system named is SPF-mice. Conditions: established marketed contrast media, comparison value; cited from earlier work.

Molecules are shown by their SMILES.

With `CCOC(=O)CCCCCOC(=O)c1c(I)c(NC(C)=O)c(I)c(NC(C)=O)c1I` [Compound N1177, 6-ethoxy-6-oxohexy-3,5-bis(acetylamino)-2,4,6-triiodobenzoate], the “Mean Size DN (XDC)” value in data set [1] (Milled Day 3) is on record as 84 nm; in data set [1] (Milled Day 5), 79 nm; in data set [1] (Milled Day 7), 77 nm; in data set [1] (T = 0 (unmilled)), 173 nm. For the same compound, the “Mean Size DV (XDC)” value was found to be 148 nm in data set [1] (Milled Day 3), 143 nm in data set [1] (Milled Day 5), 138 nm in data set [1] (Milled Day 7) and 424 nm in data set [1] (T = 0 (unmilled)). In addition, the “Mean Effective Diameter (PCS)” value was determined as 158 nm in data set [2] (Milled Day 3); 151 nm in data set [2] (Milled Day 4); 149 nm in data set [2] (Milled Day 5); 148 nm in data set [2] (Milled Day 6); 147 nm in data set [2] (Milled Day 7); 236 nm in data set [2] (T = 0 (unmilled)). The “HU value, ROI 1 Tumor vessel” value in data set [3] worked out at 81 HU. The “HU value, ROI 2 Vessel” value in data set [3] was found to be 307 HU. In data set [3], the “HU value, ROI 3 Tumor vital tissue” value stood at 5 HU. The “HU value, ROI 4 Tumor necrotic tissue” value in data set [3] is reported as 9 HU. Also, in data set [3], the “HU value, ROI 5 Whole tumor” value came out at 13 HU.
Regarding `COCC(=O)Nc1c(I)c(C(=O)NCC(O)CO)c(I)c(C(=O)N(C)CC(O)CO)c1I` (centres unmarked) [Ultravist], in data set [4] (0 h), the “Damage index after incubation” value amounted to 31.2%. The “Damage index after incubation” value in data set [4] (1 h) was found to be 12.2%. Further, the “Damage index after incubation” value in data set [4] (2 h) was 24.4%. Further, in data set [3], the “HU value, ROI 1 Tumor vessel” value is 95 HU; the “HU value, ROI 2 Vessel” value is 294 HU; the “HU value, ROI 3 Tumor vital tissue” value came out at 30 HU; the “HU value, ROI 4 Tumor necrotic tissue” value is 4 HU. The “HU value, ROI 5 Whole tumor” value in data set [3] was 37 HU. In addition, in data set [3] (dynamic CT 0-80 s), the “tumor perfusion (intra-/extravasal)” value is “intra- and extravasal perfusion”. The LD50 in data set [5] is listed as more than 12 g Iodine/kg bw.
